Test results as given in US20230190690A1, “[…] AND/OR […] FOR CORONAVIRUS DISEASE 2019 (COVID-19)” (NEOPHARMA JAPAN CO., LTD., priority 2020, published 2023).

Test system: variants of SARS-CoV-2
Assay: Infection of cells with a SARS-CoV-2 variant in the same manner
Assay type: cell-based
Conditions: cells infected with a variant in the same manner

## NCC(=O)CCC(=O)O [5-ALA, 5-aminolevulinic acid]
  inhibitory effect on SARS-CoV-2 infection and/or proliferation (variant): inhibitory effect on SARS-CoV-2 infection and/or proliferation is expected
